These results are taken from patent publication US20250296971A1, “GASTRIC INHIBITORY PEPTIDE RECEPTOR LIGANDS” (priority 2021, published 2025).

For assay [1], the target named is T1, GIPR (CHO-K1-hGIPR cells) (Homo sapiens, UniProt P48546).
T1 construct: host or cells: CHO-K1
T1 sequence (P48546 22-466): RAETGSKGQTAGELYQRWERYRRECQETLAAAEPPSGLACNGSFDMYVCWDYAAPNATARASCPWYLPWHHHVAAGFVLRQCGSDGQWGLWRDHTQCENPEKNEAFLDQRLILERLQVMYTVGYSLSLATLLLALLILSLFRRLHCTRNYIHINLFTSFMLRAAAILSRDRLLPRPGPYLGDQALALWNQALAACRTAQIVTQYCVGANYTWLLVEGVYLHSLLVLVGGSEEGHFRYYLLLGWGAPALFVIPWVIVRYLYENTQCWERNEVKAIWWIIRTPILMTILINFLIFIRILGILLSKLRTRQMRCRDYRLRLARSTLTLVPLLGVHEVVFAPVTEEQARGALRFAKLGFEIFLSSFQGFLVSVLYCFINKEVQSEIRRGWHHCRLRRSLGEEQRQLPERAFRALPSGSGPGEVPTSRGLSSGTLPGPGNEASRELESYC
The experiment in a line: FACS binding assay. Particulars: competition with 20 nM GIP-057, 4° C., 1 hour, read-out: pIC50 Category (converted). An outline of the steps: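 Peptide binding read by flow cytometry as APC-channel median fluorescence, fitted with a four-parameter logistic to yield EC50 or IC50. Cells were hGIPR-transfected CHO-K1 in PBS with 1% FCS, detected with 1 μg/mL APC-streptavidin, 30 min on ice.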
For orientation: A flow cytometer gives signals particle by particle.

Assay [2] has as its target T2, human GIP receptor (bioGIPR) (Homo sapiens, UniProt P48546).
T2 construct: Biotinylate extracellular of the human GIP receptor (bioGIPR, Proteros biostructures GmbH, lot #02/2b); purchased Proteros biostructures GmbH lot #02/2b
T2 sequence (P48546 22-138 limits assumed): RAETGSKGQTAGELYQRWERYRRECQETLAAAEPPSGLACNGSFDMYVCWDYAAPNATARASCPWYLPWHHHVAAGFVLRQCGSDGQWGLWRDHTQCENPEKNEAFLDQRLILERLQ
The experiment in a line: Surface plasmon resonance (SPR) based binding assay. Particulars: Single Cycle Kinetic mode, 25° C. Put shortly: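 Binding was measured at 25 °C by single-cycle kinetics against a reference flow cell, with blank-run and drift correction, after capturing biotinylated GIPR extracellular domain to ~3500 RU. Running buffer: HBST, 0.1% DMSO. A 1:1 Langmuir model gave kinetic rates, KD, t1/2 and pKD.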
For orientation: In SPR one partner is held on a chip, and binding of the other changes the refractive index at the surface.

The structures appear in SMILES notation. *1 amine or outer side, *2 acyl side, *3 side chain or, on linkers, in order; H or OH if unused. Where a SMILES comes first, the peptide text is derived from it. Bridges are numbered along the chain shown (N, C = ends). [ ]: non-standard residue; d: D form. The star is where a group is joined. NH(1-deoxy-D-glucityl) = OC[C@@H](O)[C@@H](O)[C@H](O)[C@@H](O)CN*; DOTA = O=C(O)CN1CCN(CC(=O)O)CCN(CC(=O)*)CCN(CC(=O)O)CC1; Trp(5-Cl) = N[C@@H](Cc1c[nH]c2ccc(Cl)cc12)C(=O)O; Pyridine(2,6-diCH2) = c1cc(C[*:1])nc(C[*:2])c1; Pro(4R-NH2) = N[C@H]1CN[C@H](C(=O)O)C1; Glutaryl = O=C(CCCC(=O)[*:2])[*:1]; X1 = O=C(CN1CCC(N[*:1])CC1)[*:2]; Api = NC1(C(=O)O)CCNCC1 Some results are limits rather than exact numbers.

For the molecule `CC[C@H](C)[C@@H]1NC(=O)[C@H](CC(C)C)NC(=O)C2(CCN(C(=O)CN3CCN(CC(=O)O)CCN(CC(=O)O)CCN(CC(=O)O)CC3)CC2)NC(=O)[C@@H](NC(=O)[C@@H](CC(C)C)NC(=O)[C@H](CCC(=O)O)NC(=O)[C@@H]2C[C@@H](N)CN2C(=O)[C@H](Cc2c[nH]c3ccc(Cl)cc23)NC(=O)[C@H](Cc2c[nH]c3ccccc23)NC(=O)[C@H](CC(=O)O)NC(=O)CCCC(=O)NC[C@H](O)[C@@H](O)[C@H](O)[C@H](O)CO)CSCc2cccc(n2)CSC[C@@H](C(=O)NC2CCN(CC(=O)N[C@H](CCC(=O)NC[C@H](O)[C@@H](O)[C@H](O)[C@H](O)CO)C(N)=O)CC2)NC1=O` [GIP-001, AGLU-Glutar-Asp-Trp-5Clw-Tap-Glu-leu-[Cys(2Lut)-Apc(DOTA)-Leu-Ile-Cys]-APAc-glu(AGLU)-NH2] ({NH(1-deoxy-D-glucityl)-Glutaryl}-DW[Trp(5-Cl)][Pro(4R-NH2)]E[dL]C[Api](DOTA)LIC[X1][dE](NH(1-deoxy-D-glucityl))-NH2; linker 7-11 via Pyridine(2,6-diCH2)), the IC50 in assay [1] is under 10 nM. In addition, the “t1/2 Category” value in assay [2] (SPR dissociation half-life) is given as “A (t1/2 values>15 min)”. The Kd in assay [2] (SPR, 1:1 Langmuir binding model, read-out: pKD Category (converted)) is under 1 nM.
